Read-outs that look alike come from different tables or passages of the source.
Tested on: P. falciparum (NF54 or 3D7 strain)
Experiment: Assay for P. falciparum proliferation in infected human blood cells (SYBR Green)
Format: cell-based, Plasmodium falciparum
Settings: Plasmodium falciparum, 72 h, NF54 or 3D7 infected human erythrocytes, 72 hours, read-out: EC50 (nM), inhibitory efficacy in delaying P. falciparum proliferation in infected human blood cells
Outline: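 NF54 or 3D7 parasites in O+ human erythrocytes at 2.5% hematocrit and 0.3% parasitemia final, exposed to compounds 72 h at 37 °C under 93% N2/4% CO2/3% O2.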

O=C(Nc1nc2cccc(Cl)c2s1)c1cn2c(-c3ccc(C(F)(F)F)cc3)cnc2cn1 [Compound 442, N-(7-chloro-1,3-benzothiazol-2-yl)-3-[4-(trifluoromethyl)phenyl]imidazo[1,2-a]pyrazine-6-carboxamide]
EC50 (Erythrocyte): 604 nM

CCN(C(=O)c1cn2c(-c3ccc(C(F)(F)F)cc3)cnc2cn1)c1ccc(C#N)cc1 [Compound 114, N-(4-cyanophenyl)-N-ethyl-3-[4-(trifluoromethyl)phenyl]imidazo[1,2-a]pyrazine-6-carboxamide]
EC50 (Erythrocyte): 76 nM

CN(C(=O)c1cn2c(-c3cc4ccccc4[nH]3)cnc2cn1)c1ccc(Cl)nc1 [Compound 387, N-(6-chloropyridin-3-yl)-3-(1H-indol-2-yl)-N-methylimidazo[1,2-a]pyrazine-6-carboxamide]
EC50 (Erythrocyte): > 10000 nM

CN(C(=O)c1cn2c(-c3ccc(C(N)=O)nc3)cnc2cn1)c1ccc(C#N)cc1 [Compound 393, 5-{6-[(4-cyanophenyl)(methyl)carbamoyl]imidazo[1,2-a]pyrazin-3-yl}pyridine-2-carboxamide]
EC50 (Erythrocyte): 3940 nM

CN(C(=O)c1cn2c(-c3ccc(C(F)(F)F)cc3)cnc2cn1)c1ccc(Cl)nn1 [Compound 94, N-(6-chloropyridazin-3-yl)-N-methyl-3-[4-(trifluoromethyl)phenyl]imidazo[1,2-a]pyrazine-6-carboxamide]
EC50 (Erythrocyte): > 10000 nM

CN(C(=O)c1cn2c(-c3cnc4c(c3)ncn4C)cnc2cn1)c1ccc(C#N)cc1 [Compound 203, N-(4-cyanophenyl)-N-methyl-3-{3-methyl-3H-imidazo[4,5-b]pyridin-6-yl}imidazo[1,2-a]pyrazine-6-carboxamide]
EC50 (Erythrocyte): 6490 nM

CS(=O)(=O)c1ccc2c(c1)CCCN2C(=O)c1cn2c(-c3ccc(C(F)(F)F)cc3)cnc2cn1 [Compound 316, 6-methanesulfonyl-1-({3-[4-(trifluoromethyl)phenyl]imidazo[1,2-a]pyrazin-6-yl}carbonyl)-1,2,3,4-tetrahydroquinoline]
EC50 (Erythrocyte): 1890 nM

CN(C(=O)c1cn2c(-c3cnc4[nH]ccc4c3)cnc2cn1)c1ccc(Cl)nc1 [Compound 312, N-(6-chloropyridin-3-yl)-N-methyl-3-{1H-pyrrolo[2,3-b]pyridin-5-yl}imidazo[1,2-a]pyrazine-6-carboxamide]
EC50 (Erythrocyte): 2640 nM

CN(Cc1cn2c(-c3ccc(-c4ccn[nH]4)cc3)cnc2cn1)c1ccc(F)cc1 [Compound 3, N-((3-(4-(1H-pyrazol-5-yl)phenyl)imidazo[1,2-a]pyrazin-6-yl)methyl)-4-fluoro-N-methylaniline]
EC50 (Erythrocyte): 58 nM

CN(C(=O)c1cn2c(-c3ccc(C(F)(F)F)cc3)cnc2cn1)c1cc(C(F)(F)F)ccn1 [Compound 348, N-methyl-3-[4-(trifluoromethyl)phenyl]-N-[4-(trifluoromethyl)pyridin-2-yl]imidazo[1,2-a]pyrazine-6-carboxamide]
EC50 (Erythrocyte): 4690 nM

N#Cc1nc[nH]c1NC(=O)c1cn2c(-c3ccc(C(F)(F)F)cc3)cnc2cn1 [Compound 389, N-(4-cyano-1H-imidazol-5-yl)-3-[4-(trifluoromethyl)phenyl]imidazo[1,2-a]pyrazine-6-carboxamide]
EC50 (Erythrocyte): 2000 nM

CN(C(=O)c1cn2c(-c3ccc(N)nc3)cnc2cn1)c1ccc(C#N)cc1 [Compound 272, 3-(6-aminopyridin-3-yl)-N-(4-cyanophenyl)-N-methylimidazo[1,2-a]pyrazine-6-carboxamide]
EC50 (Erythrocyte): 295 nM

CN(C(=O)c1ccc(C#N)cc1)c1cn2c(-c3ccc(C(F)(F)F)cc3)cnc2cn1 [Compound 283, 4-cyano-N-methyl-N-{3-[4-(trifluoromethyl)phenyl]imidazo[1,2-a]pyrazin-6-yl}benzamide]
EC50 (Erythrocyte): 178 nM

O=C(NCc1ccc(N2CCOCC2)cc1)c1cn2c(-c3ccc(C(F)(F)F)cc3)cnc2cn1 [Compound 383, N-{[4-(morpholin-4-yl)phenyl]methyl}-3-[4-(trifluoromethyl)phenyl]imidazo[1,2-a]pyrazine-6-carboxamide]
EC50 (Erythrocyte): > 10000 nM

CN(C(=O)c1cn2c(-c3ccc(-n4ccnc4)cc3)cnc2cn1)c1ccc(C#N)cc1 [Compound 146]
EC50 (3D7|NF54, Erythrocyte, in Homo sapiens): 462 nM

CN(C(=O)c1cn2c(-c3ccc(Oc4ccccc4)cc3)cnc2cn1)c1ccc(C#N)cc1 [Compound 177, N-(4-cyanophenyl)-N-methyl-3-(4-phenoxyphenyl)imidazo[1,2-a]pyrazine-6-carboxamide]
EC50 (Erythrocyte): 6750 nM

CN(C(=O)c1cn2c(-c3ccc4cnccc4c3)cnc2cn1)c1ccc(C#N)cc1 [Compound 167, N-(4-cyanophenyl)-3-(isoquinolin-6-yl)-N-methylimidazo[1,2-a]pyrazine-6-carboxamide]
EC50 (Erythrocyte): 4870 nM

CC(C)[C@H](N)C(=O)Nc1ccc(-c2cnc3cnc(C(=O)N(C)c4ccc(C#N)cc4)cn23)cc1 [Compound 266, 3-{4-[(2S)-2-amino-3-methylbutanamido]phenyl}-N-(4-cyanophenyl)-N-methylimidazo[1,2-a]pyrazine-6-carboxamide]
EC50 (Erythrocyte): 234 nM

CN(C)CCNC(=O)c1ccc(-c2cnc3cnc(C(=O)N(C)c4ccc(C#N)cc4)cn23)cc1 [Compound 291, N-(4-cyanophenyl)-3-(4-{[2-(dimethylamino)ethyl]carbamoyl}phenyl)-N-methylimidazo[1,2-a]pyrazine-6-carboxamide]
EC50 (Erythrocyte): 1160 nM

CN(C(=O)c1cn2c(-c3ccc(Cl)nc3)cnc2cn1)c1ccc(C#N)cc1 [Compound 439, 3-(6-chloropyridin-3-yl)-N-(4-cyanophenyl)-N-methylimidazo[1,2-a]pyrazine-6-carboxamide]
EC50 (Erythrocyte): 2760 nM

CN(C)c1ccc(-c2cnc3cnc(C(=O)N(C)c4ccc(F)cc4)cn23)cc1 [Compound 121, 3-[4-(dimethylamino)phenyl]-N-(4-fluorophenyl)-N-methylimidazo[1,2-a]pyrazine-6-carboxamide]
EC50 (Erythrocyte): 259 nM

CN(C(=O)c1cn2c(-c3ccc(OC(F)F)cc3)cnc2cn1)c1ccc(F)cc1 [Compound 433, 3-[4-(difluoromethoxy)phenyl]-N-(4-fluorophenyl)-N-methylimidazo[1,2-a]pyrazine-6-carboxamide]
EC50 (Erythrocyte): 31 nM

CN(C(=O)c1cn2c(-c3ccc(C(F)(F)F)cc3)cnc2cn1)c1ncc(Br)cn1 [Compound 434, N-(5-bromopyrimidin-2-yl)-N-methyl-3-[4-(trifluoromethyl)phenyl]imidazo[1,2-a]pyrazine-6-carboxamide]
EC50 (Erythrocyte): 7090 nM

CN(C(=O)c1cn2c(-c3ccc(C(F)(F)F)cc3)cnc2cn1)c1cnc(Cl)s1 [Compound 496, N-(2-chloro-1,3-thiazol-5-yl)-N-methyl-3-[4 (trifluoromethyl)phenyl]imidazo[1,2-a]pyrazine-6-carboxamide]
EC50 (Erythrocyte): 2840 nM

CN(C(=O)c1cn2c(-c3ccc(C(F)(F)F)cc3)cnc2cn1)c1ccc(C#N)c(Cl)c1 [Compound 502, N-(3-chloro-4-cyanophenyl)-N-methyl-3-[4-(trifluoromethyl)phenyl]imidazo[1,2-a]pyrazine-6-carboxamide]
EC50 (Erythrocyte): 2000 nM

CC(C)c1nc(-c2cnc3cnc(C(=O)N(C)c4ccc(C#N)cc4)cn23)cs1 [Compound 156, N-(4-cyanophenyl)-N-methyl-3-[2-(propan-2-yl)-1,3-thiazol-4-yl]imidazo[1,2-a]pyrazine-6-carboxamide]
EC50 (Erythrocyte): 391 nM

CN(Cc1ccccc1)C(=O)c1cn2c(-c3ccc(C(F)(F)F)cc3)cnc2cn1 [Compound 370, N-benzyl-N-methyl-3-[4-(trifluoromethyl)phenyl]imidazo[1,2-a]pyrazine-6-carboxamide]
EC50 (Erythrocyte): 8200 nM

CN(C(=O)c1cn2c(-c3ccc(NC(=O)C4CCC[C@H]4N)cc3)cnc2cn1)c1ccc(C#N)cc1 (stereo partly drawn) [Compound 255, 3-(4-{[(1S,2R)-2-aminocyclopentane]amido}phenyl)-N-(4-cyanophenyl)-N-methylimidazo[1,2-a]pyrazine-6-carboxamide]
EC50 (Erythrocyte): 155 nM

Cc1ccc(-c2cnc3cnc(C(=O)N(C)c4ccc(F)cc4)cn23)cc1 [Compound 108, N-(4-fluorophenyl)-N-methyl-3-(4-methylphenyl)imidazo[1,2-a]pyrazine-6-carboxamide]
EC50 (Erythrocyte): 110 nM

CN(Cc1cn2c(-c3ccc(-c4ccn[nH]4)cc3)cnc2cn1)c1ccc(Cl)cc1 [Compound 5, N-((3-(4-(1H-pyrazol-5-yl)phenyl)imidazo[1,2-a]pyrazin-6-yl)methyl)-4-chloro-N-methylaniline]
EC50 (Erythrocyte): 238 nM

Cc1cc(N(C)C(=O)c2cn3c(-c4ccc(C(F)(F)F)cc4)cnc3cn2)cnc1Cl [Compound 304, N-(6-chloro-5-methylpyridin-3-yl)-N-methyl-3-[4-(trifluoromethyl)phenyl]imidazo[1,2-a]pyrazine-6-carboxamide]
EC50 (Erythrocyte): 452 nM

CN(C(=O)c1cn2c(-c3ccc4[nH]ccc4c3)cnc2cn1)c1ccc(Cl)nc1 [Compound 301, N-(6-chloropyridin-3-yl)-3-(1H-indol-5-yl)-N-methylimidazo[1,2-a]pyrazine-6-carboxamide]
EC50 (Erythrocyte): 1200 nM

C=Cc1cnc2cnc(C(=O)N(C)c3ccc(Cl)nc3)cn12 [Compound 381, N-(6-chloropyridin-3-yl)-3-ethenyl-N-methylimidazo[1,2-a]pyrazine-6-carboxamide]
EC50 (Erythrocyte): 5110 nM

CCc1ccc(N(C)C(=O)c2cn3c(-c4ccc(C(F)(F)F)cc4)cnc3cn2)nc1 [Compound 39, N-(5-ethylpyridin-2-yl)-N-methyl-3-[4-(trifluoromethyl)phenyl]imidazo[1,2-a]pyrazine-6-carboxamide]
EC50 (Erythrocyte): 1080 nM

CN(C(=O)c1cn2c(-c3ccc(NC(C)(C)CN)cc3)cnc2cn1)c1ccc(C#N)cc1 [Compound 324, 3-{4-[(1-amino-2-methylpropan-2-yl)amino]phenyl}-N-(4-cyanophenyl)-N-methylimidazo[1,2-a]pyrazine-6-carboxamide]
EC50 (Erythrocyte): 1230 nM

CCOc1ccnc(N(C)C(=O)c2cn3c(-c4ccc(C(F)(F)F)cc4)cnc3cn2)c1 [Compound 310, N-(4-ethoxypyridin-2-yl)-N-methyl-3-[4-(trifluoromethyl)phenyl]imidazo[1,2-a]pyrazine-6-carboxamide]
EC50 (Erythrocyte): 2480 nM
